Data as given in ChEMBL document CHEMBL4376882, “Photodynamic Therapy for ras-Driven Cancers: Targeting G-Quadruplex RNA Structures with Bifunctional Alkyl-Modified Porphyrins” (J Med Chem, 2020).
Calls of active or inactive are those of the source. The calls are words filed in the database; no cut-off is given here.

Tests used:
Quadruplex DNA = assay: Binding affinity to human KRAS utr-c RNA g-quadruplex by fluorescence spectroscopy; type: nucleic-acid assay
[1] = Induction of ROS-mediated Cys5.5 labelled utr-c RNA duplex (unknown origin) degradation at 0.6 uM incubated for 30 mins followed by photoirradiation for 15 to 30 mins by PAGE analysis
[2] = biological target: GTPase KRas (Homo sapiens) (UniProt P01116); assay: Inhibition of KRAS in human PANC1 cells assessed as downregulation of KRAS expression at 15 nM followed by 7.2 J/cm2 irradiation after 4 hrs by Western blot analysis (reference value: 5 %); type: cell-based
GTPase KRas (Homo sapiens), sequence (P01116 whole entry, looked up): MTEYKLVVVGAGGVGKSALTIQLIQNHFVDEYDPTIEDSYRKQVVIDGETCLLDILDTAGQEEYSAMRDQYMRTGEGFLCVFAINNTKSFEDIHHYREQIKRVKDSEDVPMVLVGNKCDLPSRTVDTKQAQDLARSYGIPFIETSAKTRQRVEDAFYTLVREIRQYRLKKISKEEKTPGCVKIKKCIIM

[3] = biological target: GTPase NRas (Homo sapiens) (UniProt P01111); assay: Inhibition of NRAS in human PANC1 cells assessed as downregulation of NRAS expression at 15 nM followed by 7.2 J/cm2 irradiation after 4 hrs by Western blot analysis (reference value: 25 %); type: cell-based
GTPase NRas (Homo sapiens), sequence (P01111 whole entry): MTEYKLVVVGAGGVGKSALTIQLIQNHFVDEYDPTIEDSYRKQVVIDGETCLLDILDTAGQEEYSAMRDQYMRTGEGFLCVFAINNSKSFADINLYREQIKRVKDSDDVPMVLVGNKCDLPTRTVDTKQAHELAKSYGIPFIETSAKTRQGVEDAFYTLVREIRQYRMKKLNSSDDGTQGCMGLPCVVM

PANC-1 [4] = assay: Antitumor activity against human PANC1 cells xenografted in SCID mouse assessed as reduction in tumor growth at 3 mg/kg administered intratumorally measured after 14 days by micrometer caliper method; type: functional, organism-based
PANC-1 [5] = assay: Induction of apoptosis in human PANC1 cells assessed as early apoptotic cells at 15 nM and photoirradiated at 7.2 J/cm2 measured after 6 to 24 hrs by annexin-V-propidium iodide staining based FACScalibur flow cytometry analysis (reference value: 4.6 %); type: functional

## CCCCCCCCCCCCCC[n+]1ccc(-c2c3nc(c(-c4cc[n+](C)cc4)c4ccc([nH]4)c(-c4cc[n+](C)cc4)c4nc(c(-c5cc[n+](C)cc5)c5ccc2[nH]5)C=C4)C=C3)cc1.[I-].[I-].[I-].[I-]
Quadruplex DNA
  Kd: 235 nM
[1]
  Activity: inactive
[2]
  inhibition: 20%
[3]
  inhibition: 50%
PANC-1 [4]
  Activity: inactive
PANC-1 [5]
  Activity: 4.5%
